Data taken from US20180110777A1, “METHOD FOR REGULATION OF TELOMERE LENGTH” (The Johns Hopkins University, priority 2015, published 2018).
“Also recorded” adds a separate entry of the source.

Columns and labels:
SL13 cells = test: Bulk telomere length, Southern blot, SL13 long-term culture; type: cell-based, mouse
Excerpt: ATM has been proposed to play different roles in signaling telomere dysfunction in human and mouse cells. Since it is not yet clear whether the damage signaling is mechanistically linked to telomere elongation, and given the discrepant reports of the role of ATM in human telomere length, the role of ATM in human cells was revisited.
As an independent test of Olaparib on telomere length, telomeres were examined by Southern blot in cultured SL13 cells grown in the presence of Olaparib for an extended time. […] Taken together, the experiments described here indicate that inhibition of ATM blocks telomere elongation while activation of ATM stimulates telomere elongation.
Telomere lengths of SL13 cells treated with 10 μM KU55933 were measured at different population doublings (PD) using genomic Southern blot analysis. […] Boxed numbers indicate the pixel positions corresponding to the blot.
To examine the in vivo chr4 cleavage, genomic DNA of SL13 treated with doxycycline for various time points was extracted using the Puregene™ Core Kit A (Qiagen) and digested with NcoI restriction enzyme (NEB). […] Labeled probe was counted and 10^6 counts/ml (probe) or 10^4 counts/ml (2-log ladder) was denatured at 100° C. for 5 minutes and added to the pre-hybridization solution and hybridized overnight at 42° C. […]

telomerase = target: T1, telomerase (Homo sapiens, UniProt O14746); test: Direct telomerase activity assay in lysates of treated cells; type: cell-based; settings: 293TREx-0611 cells; 30 μM KU55933 or 5 μM Olaparib for two hours
T1 construct: expressed in transfected cells; host or cells: 293TREx-0611 cells overexpressing TPP1, POT1 and hTERT, transfected with U1-hTR; whole cell lysate
T1 sequence (O14746 whole entry): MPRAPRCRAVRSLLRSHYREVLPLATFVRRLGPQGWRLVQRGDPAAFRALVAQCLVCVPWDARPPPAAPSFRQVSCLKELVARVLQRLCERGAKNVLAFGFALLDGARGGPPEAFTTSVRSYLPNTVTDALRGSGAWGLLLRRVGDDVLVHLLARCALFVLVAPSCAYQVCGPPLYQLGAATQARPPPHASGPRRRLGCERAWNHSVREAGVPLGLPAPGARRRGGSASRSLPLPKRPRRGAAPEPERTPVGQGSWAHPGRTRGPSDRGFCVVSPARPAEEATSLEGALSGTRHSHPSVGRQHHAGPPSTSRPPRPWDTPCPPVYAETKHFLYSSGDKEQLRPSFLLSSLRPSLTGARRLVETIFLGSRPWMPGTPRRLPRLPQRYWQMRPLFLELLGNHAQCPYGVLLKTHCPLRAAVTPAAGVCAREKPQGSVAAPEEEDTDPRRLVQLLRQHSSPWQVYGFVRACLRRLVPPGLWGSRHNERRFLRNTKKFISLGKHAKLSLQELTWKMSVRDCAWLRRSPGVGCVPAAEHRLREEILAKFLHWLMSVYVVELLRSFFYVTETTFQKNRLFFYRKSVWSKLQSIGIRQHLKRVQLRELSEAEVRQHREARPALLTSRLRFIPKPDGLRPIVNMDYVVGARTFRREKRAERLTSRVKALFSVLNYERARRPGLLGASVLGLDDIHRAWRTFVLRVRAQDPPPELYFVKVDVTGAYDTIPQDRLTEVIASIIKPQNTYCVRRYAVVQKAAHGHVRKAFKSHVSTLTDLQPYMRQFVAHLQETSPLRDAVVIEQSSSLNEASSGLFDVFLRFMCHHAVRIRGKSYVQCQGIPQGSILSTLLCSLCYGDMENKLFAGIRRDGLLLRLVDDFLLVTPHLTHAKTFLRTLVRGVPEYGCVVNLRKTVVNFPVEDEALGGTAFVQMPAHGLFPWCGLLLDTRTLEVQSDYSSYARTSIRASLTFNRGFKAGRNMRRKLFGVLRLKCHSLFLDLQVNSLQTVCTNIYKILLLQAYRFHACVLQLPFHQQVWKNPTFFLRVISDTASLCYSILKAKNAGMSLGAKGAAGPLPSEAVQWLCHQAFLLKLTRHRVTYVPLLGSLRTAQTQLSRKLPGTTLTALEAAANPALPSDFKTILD
T1 sequence (O60832 whole entry partner): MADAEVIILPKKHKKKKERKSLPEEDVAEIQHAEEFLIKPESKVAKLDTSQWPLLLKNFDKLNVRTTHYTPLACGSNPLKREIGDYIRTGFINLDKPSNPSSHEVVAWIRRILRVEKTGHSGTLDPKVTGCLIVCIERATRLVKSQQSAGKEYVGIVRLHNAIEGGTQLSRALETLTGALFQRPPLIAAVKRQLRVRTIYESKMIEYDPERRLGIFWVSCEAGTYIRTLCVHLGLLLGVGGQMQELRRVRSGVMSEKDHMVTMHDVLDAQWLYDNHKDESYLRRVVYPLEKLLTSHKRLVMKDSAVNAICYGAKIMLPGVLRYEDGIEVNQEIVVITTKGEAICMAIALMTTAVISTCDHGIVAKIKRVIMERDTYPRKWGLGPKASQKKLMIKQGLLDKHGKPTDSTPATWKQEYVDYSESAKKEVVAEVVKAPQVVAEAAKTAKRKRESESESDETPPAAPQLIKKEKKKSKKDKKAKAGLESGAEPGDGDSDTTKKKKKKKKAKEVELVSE
T1 sequence (Q9NPE3 whole entry partner): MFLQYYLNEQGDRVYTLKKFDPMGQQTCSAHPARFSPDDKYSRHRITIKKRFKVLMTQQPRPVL
T1 sequence (Q9NX24 whole entry partner): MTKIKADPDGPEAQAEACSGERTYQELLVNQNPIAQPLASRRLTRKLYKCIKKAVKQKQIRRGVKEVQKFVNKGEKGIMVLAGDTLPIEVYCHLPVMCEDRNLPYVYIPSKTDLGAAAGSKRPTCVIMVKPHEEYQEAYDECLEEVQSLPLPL
T1 sequence (Q9NY12 whole entry partner): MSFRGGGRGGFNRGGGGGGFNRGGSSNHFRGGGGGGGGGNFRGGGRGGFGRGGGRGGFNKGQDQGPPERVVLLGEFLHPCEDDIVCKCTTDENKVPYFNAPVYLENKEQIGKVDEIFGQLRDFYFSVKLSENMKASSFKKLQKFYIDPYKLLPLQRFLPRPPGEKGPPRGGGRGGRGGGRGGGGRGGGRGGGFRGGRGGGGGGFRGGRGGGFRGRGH
Experimental: Telomerase is known to be phosphorylated, so whether the KU55933 or Olaparib treatment of cells might directly affect telomerase activity was examined. […] ATM kinase is a positive regulator of telomere elongation in both mouse and human cells, and the effects of ATM inhibition are not due to inhibition of telomerase enzyme activity.
Telomerase activity was assayed in whole cell lysates with a modified protocol (Nandakumar et al., 2012, Nature 492, 285-289). 293TREx-0611 cells overexpressing TPP1, POT1, and hTERT were seeded (3×10^5 cells) per well in a poly-D-Lysine coated 6-well plate. The next day, cells were transfected with U1-hTR using Lipofectamine™ 3000 and incubated overnight. Then, they were treated with 30 μM KU55933, 5 μM Olaparib, or DMSO for two hours before harvesting in 100 μl 1×CHAPS. Cells were lysed on ice for 30 minutes, vortexing occasionally, and cleared by spinning (8000 rpm, 20 min, 4° C.). For negative controls, 25 μl cleared lysate was incubated at 65° C. with 1 μl RNaseA (1 mg/ml) for 10 minutes. For direct telomerase assays, lysates were incubated with primer a5 (Wang et al., 2007) in 1× telomerase buffer (50 mM Tris-Cl, 30 mM KCl, 1 mM MgCl2, 1 mM spermidine), 0.5 mM dTTP, 0.5 mM dATP, 2.92 μM dGTP, and 0.33 μM α32P-dGTP at 30° C. Reactions were stopped at 10 or 15 minutes with 20 mM EDTA, 10 mM Tris spiked with 500 cpm end-labeled 18mer. […]

SMILES | telomere length by Southern blot (SL13 cells; SL13 cells grown in presence of Olaparib for 55 population doublings) | telomerase activity (telomerase) | bulk telomere length (SL13 cells; SL13 cells grown in 10 μM KU55933, different population doublings)
O=C(c1cc(Cc2n[nH]c(=O)c3ccccc23)ccc1F)N1CCN(C(=O)C2CC2)CC1 [Olaparib] | Telomere length gradually increased; also recorded: gradually increased after 25 PDs | no change in telomerase activity | –
O=c1cc(-c2cccc3c2Sc2ccccc2S3)oc(N2CCOCC2)c1 [KU55933] | – | no change in telomerase activity | telomere shortening also occurred, although at a somewhat slower rate
